From paper doi:10.1101/208439v1 (biorxiv, 2017)
Read-outs that look alike come from different tables or passages of the source.

Key:
[1] = target: SMYD2 (Homo sapiens, UniProt Q9NRG4); experiment: biochemical
[2] = target: T1, EZH2 Complex (Homo sapiens, UniProt Q15910); experiment: HotSpot [3H]SAM filter-binding methyltransferase assay; format: biochemical
T1 construct: five-member complex, Flag-EED, other subunits His-tagged, insect cells; with Zinc finger protein AEBP2; Polycomb protein EED; Polycomb protein SUZ12
T1 sequence (Q15910 2-746): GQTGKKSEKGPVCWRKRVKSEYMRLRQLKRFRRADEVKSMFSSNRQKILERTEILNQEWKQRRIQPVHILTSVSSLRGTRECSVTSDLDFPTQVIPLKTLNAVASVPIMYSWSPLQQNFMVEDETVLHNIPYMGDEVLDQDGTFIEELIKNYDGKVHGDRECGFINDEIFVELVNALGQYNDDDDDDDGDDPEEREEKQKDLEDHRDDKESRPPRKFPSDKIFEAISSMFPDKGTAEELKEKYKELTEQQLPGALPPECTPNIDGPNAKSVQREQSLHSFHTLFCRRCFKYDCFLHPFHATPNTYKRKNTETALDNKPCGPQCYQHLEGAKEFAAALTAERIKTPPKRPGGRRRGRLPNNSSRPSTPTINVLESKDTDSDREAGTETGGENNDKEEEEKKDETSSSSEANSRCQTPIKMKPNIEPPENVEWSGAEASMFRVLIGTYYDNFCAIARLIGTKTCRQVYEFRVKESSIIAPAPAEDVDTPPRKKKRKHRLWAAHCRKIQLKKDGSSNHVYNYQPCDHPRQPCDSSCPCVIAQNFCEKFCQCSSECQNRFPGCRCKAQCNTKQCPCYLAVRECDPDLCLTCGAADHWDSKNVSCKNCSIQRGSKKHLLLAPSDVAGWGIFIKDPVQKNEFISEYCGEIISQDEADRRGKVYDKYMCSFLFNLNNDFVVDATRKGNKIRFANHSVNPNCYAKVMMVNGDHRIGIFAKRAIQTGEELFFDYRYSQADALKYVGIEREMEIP
T1 sequence (O75530 2-441 partner): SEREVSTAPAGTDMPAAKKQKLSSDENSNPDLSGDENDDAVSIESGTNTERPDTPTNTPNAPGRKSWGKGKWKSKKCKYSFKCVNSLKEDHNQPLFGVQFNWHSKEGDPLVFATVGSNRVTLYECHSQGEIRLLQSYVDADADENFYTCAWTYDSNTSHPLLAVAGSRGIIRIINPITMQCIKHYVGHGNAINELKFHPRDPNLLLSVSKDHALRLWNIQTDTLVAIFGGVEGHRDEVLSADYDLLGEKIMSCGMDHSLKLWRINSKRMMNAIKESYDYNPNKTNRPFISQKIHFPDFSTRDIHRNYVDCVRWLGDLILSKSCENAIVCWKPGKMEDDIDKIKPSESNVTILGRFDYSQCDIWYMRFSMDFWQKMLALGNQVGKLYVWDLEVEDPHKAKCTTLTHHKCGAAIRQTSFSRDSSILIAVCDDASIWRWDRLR
T1 sequence (Q15022 2-739 partner): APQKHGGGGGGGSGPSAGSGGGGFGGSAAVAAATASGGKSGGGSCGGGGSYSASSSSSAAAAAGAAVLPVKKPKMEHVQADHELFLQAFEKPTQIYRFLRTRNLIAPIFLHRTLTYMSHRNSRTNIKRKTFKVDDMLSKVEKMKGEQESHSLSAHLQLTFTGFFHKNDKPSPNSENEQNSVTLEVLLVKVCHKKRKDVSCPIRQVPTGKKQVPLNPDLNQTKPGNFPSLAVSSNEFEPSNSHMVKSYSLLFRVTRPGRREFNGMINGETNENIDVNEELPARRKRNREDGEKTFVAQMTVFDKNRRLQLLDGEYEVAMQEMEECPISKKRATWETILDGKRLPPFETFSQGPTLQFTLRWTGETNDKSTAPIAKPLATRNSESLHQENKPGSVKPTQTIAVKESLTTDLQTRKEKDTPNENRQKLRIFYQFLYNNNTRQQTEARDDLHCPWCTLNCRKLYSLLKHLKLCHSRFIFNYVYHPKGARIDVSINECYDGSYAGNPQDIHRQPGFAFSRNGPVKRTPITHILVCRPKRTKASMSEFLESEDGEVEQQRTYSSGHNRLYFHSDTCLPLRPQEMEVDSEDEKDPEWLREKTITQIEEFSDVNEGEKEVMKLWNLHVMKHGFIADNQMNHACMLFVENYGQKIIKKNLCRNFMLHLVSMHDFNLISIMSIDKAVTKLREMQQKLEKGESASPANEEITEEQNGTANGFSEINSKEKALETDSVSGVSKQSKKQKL
T1 sequence (Q09028 2-425 partner): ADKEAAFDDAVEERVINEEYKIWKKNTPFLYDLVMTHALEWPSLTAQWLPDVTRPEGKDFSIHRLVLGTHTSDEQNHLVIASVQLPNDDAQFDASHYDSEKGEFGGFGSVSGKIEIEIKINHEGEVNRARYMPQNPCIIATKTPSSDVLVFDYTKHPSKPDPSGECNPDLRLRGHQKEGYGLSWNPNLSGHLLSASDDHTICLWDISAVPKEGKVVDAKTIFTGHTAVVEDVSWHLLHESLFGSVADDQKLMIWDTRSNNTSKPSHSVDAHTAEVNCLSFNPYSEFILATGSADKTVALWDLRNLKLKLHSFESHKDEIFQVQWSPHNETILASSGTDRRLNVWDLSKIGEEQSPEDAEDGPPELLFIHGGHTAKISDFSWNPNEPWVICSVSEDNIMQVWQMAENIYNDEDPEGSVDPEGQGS
T1 sequence (Q6ZN18 2-517 partner): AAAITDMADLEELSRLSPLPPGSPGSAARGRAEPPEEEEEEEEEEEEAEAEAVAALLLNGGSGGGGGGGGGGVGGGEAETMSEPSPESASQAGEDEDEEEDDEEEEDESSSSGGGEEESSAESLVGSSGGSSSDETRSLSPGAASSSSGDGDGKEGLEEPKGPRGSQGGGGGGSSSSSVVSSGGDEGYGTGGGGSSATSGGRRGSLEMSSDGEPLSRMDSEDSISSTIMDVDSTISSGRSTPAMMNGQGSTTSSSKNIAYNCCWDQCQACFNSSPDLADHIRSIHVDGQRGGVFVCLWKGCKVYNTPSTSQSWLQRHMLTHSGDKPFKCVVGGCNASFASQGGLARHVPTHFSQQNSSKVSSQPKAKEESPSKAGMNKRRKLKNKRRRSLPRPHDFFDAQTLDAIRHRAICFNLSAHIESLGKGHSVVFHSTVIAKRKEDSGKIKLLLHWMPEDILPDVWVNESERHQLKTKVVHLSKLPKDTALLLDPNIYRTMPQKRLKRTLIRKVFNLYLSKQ

[3] = target: T2, DNMT3b (Homo sapiens, UniProt Q9UBC3); experiment: as above; format: biochemical
T2 construct: residues 2-853, N-terminal GST fusion, insect cell/baculovirus

[4] = target: T3, EZH1 Complex (Homo sapiens, UniProt Q92800); experiment: as above; format: biochemical
T3 construct: five-member complex, Flag-EED, other subunits His-tagged, insect cells; with Zinc finger protein AEBP2; Polycomb protein EED; Polycomb protein SUZ12

[5] = target: T4, NSD2 (Homo sapiens, UniProt O96028); experiment: as above; format: biochemical; settings: nucleosomes […], […] SAM, pH […] DTT, […] °C
T4 construct: full length (residues 2-1365), N-terminal His tag, insect cell/baculovirus
T4 sequence (O96028 2-1365): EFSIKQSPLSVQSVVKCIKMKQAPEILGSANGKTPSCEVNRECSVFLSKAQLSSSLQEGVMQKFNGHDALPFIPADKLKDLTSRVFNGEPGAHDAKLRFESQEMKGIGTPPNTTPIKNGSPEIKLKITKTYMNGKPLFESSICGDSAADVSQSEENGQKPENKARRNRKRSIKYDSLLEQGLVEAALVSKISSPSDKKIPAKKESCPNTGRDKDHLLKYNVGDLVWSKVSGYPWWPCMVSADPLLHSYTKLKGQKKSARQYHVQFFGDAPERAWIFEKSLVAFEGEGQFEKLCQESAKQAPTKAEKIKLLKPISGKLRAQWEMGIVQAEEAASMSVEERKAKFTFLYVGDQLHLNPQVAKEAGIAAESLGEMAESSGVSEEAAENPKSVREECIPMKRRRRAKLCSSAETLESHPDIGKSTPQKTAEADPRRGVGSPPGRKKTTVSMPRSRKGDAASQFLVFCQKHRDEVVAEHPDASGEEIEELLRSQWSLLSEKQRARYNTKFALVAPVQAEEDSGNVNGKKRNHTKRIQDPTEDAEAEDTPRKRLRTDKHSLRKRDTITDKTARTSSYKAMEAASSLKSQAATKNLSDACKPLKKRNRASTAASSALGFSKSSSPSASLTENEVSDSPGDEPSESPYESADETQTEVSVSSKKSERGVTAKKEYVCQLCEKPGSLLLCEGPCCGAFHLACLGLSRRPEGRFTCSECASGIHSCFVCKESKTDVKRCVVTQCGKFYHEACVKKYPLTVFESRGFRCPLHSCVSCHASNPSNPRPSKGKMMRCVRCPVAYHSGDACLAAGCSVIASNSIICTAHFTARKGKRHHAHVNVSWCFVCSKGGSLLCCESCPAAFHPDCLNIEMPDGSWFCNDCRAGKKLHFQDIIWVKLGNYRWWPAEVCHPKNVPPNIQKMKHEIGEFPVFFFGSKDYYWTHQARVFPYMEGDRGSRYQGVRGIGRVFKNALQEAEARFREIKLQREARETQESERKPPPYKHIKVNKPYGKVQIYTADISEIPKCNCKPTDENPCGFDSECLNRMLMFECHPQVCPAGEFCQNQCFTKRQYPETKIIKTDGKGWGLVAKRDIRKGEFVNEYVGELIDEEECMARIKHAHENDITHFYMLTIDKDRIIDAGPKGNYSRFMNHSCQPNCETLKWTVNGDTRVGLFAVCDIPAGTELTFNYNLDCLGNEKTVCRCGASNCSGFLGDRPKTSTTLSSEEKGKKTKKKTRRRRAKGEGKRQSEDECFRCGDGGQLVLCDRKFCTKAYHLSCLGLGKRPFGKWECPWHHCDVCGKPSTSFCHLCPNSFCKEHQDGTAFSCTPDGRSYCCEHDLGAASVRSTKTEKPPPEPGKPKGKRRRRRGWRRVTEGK

[6] = target: DNMT1 (Homo sapiens, UniProt P26358); experiment: biochemical
Sequence of DNMT1 (P26358 whole entry, the tested form may be a part): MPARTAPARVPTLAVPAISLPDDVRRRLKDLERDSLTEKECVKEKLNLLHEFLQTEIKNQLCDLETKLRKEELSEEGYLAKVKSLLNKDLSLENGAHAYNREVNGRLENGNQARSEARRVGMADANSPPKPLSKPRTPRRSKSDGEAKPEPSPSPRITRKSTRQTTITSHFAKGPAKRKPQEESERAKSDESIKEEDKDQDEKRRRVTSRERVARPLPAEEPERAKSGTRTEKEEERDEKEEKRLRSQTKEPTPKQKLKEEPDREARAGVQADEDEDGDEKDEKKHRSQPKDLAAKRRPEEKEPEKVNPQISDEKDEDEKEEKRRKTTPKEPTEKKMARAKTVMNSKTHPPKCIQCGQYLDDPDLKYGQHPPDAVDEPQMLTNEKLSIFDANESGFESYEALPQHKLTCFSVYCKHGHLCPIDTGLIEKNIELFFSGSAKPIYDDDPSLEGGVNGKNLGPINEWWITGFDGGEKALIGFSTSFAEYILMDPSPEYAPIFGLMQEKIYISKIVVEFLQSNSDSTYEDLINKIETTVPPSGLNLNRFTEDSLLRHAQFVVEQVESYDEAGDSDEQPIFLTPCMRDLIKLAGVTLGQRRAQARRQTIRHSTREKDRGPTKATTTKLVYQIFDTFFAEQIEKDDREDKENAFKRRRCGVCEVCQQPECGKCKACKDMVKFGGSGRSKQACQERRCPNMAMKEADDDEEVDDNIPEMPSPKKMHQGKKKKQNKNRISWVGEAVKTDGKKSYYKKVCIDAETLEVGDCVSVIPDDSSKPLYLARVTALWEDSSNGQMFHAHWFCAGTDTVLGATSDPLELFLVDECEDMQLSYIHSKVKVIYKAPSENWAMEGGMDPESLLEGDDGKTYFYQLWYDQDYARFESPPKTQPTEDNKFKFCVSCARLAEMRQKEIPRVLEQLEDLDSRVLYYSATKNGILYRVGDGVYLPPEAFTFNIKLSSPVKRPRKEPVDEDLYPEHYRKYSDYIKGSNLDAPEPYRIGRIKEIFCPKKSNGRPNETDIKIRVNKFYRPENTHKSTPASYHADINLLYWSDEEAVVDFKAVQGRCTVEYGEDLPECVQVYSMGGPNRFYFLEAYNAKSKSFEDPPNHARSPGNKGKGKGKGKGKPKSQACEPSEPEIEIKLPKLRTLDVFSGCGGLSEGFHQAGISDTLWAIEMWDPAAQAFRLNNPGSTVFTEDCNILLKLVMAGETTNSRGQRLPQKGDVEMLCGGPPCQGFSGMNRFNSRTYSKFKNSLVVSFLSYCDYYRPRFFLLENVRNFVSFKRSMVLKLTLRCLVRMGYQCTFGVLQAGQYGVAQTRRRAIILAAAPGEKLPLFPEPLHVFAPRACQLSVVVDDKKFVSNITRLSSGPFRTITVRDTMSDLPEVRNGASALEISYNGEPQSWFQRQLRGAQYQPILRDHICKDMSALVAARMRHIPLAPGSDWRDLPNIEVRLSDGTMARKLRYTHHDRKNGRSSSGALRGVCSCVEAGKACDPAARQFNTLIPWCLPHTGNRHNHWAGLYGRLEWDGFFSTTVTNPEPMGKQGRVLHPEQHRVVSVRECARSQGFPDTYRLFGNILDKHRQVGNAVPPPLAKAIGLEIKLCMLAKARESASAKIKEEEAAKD

[7] = target: T5, NSD2 SET domain (Homo sapiens, UniProt O96028); experiment: SPR Biacore 8K, single-cycle kinetics, […] model; format: binding
T5 construct: SET domain, residues 934-1241, N-terminal His tag, E. coli
T5 sequence (O96028 934-1241): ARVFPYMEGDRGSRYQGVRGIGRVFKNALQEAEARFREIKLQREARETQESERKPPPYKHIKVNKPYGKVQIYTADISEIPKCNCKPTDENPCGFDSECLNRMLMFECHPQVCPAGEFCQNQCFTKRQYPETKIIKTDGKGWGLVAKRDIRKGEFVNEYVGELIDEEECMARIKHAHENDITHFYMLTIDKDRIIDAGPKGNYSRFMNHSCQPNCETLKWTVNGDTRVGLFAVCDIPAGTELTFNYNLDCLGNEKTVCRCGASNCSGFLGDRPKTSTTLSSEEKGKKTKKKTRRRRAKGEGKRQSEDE

[8] = target: T6, SETD2 (Homo sapiens, UniProt Q9BYW2); experiment: HotSpot [3H]SAM filter-binding methyltransferase assay; format: biochemical; set-up: residues 1434-1711, N-terminal GST fusion, E. coli
T6 sequence (Q9BYW2 1434-1711): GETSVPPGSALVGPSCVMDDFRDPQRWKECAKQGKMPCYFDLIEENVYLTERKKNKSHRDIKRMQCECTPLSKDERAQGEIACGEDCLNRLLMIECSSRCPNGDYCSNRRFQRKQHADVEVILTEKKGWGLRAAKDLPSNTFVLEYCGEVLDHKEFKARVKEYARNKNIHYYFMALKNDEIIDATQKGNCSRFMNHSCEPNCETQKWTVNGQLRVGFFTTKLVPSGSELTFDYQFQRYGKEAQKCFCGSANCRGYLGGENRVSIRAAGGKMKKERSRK

[9] = target: T7, EZH2 Complex (Homo sapiens, UniProt Q15910, Y641F); experiment: as above; format: biochemical
T7 construct: five-member complex, Flag-EED, other subunits His-tagged, insect cells; with Zinc finger protein AEBP2; Polycomb protein EED; Polycomb protein SUZ12

[10] = read-out: DA3003-1 IC50, inhibitor
[11] = core histone, […] SAM, pH […] EDTA, […] DTT, […] °C, single experiment

Sequence of SMYD2 (Q9NRG4 whole entry): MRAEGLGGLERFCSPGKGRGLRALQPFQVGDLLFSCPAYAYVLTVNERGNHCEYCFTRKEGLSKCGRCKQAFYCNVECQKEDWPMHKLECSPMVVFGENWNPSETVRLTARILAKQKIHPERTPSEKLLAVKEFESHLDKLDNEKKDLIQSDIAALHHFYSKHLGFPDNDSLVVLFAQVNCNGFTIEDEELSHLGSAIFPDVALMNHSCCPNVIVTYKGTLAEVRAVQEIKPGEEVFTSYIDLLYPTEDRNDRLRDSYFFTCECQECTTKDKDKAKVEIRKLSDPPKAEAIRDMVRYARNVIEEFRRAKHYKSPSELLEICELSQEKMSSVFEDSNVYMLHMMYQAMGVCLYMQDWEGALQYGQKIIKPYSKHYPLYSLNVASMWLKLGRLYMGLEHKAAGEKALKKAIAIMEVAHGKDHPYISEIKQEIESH

Structure (SMILES) | IC50 [1] | IC50 [2] | IC50 [3] | IC50 [4] | IC50 [5] | IC50 [6] | Kd [7] | IC50 [8] | IC50 [9] | IC50 [1, 10] | IC50 ([5]; compound is redox-active) | IC50 [6, 10] | IC50 [2, 11] | IC50 ([3]; lambda DNA, […] SAM, pH […] EDTA, […] DTT, […] °C, single experiment) | IC50 [4, 11] | Kd ([7]; immobilized SET domain, pH […] °C, […] MgCl2, […] TCEP, […] DMSO) | IC50 ([8]; nucleosomes, […] SAM, pH […] MgCl2, […] DTT, […] °C, single experiment) | IC50 [9, 11]
CC1(C)CCC(CN2CCN(c3ccc(C(=O)NS(=O)(=O)c4ccc(NCC5CCOCC5)c([N+](=O)[O-])c4)c(Oc4cnc5[nH]ccc5c4)c3)CC2)=C(c2ccc(Cl)cc2)C1 [ABT-199] | 44 µM | 23 µM | > 100 µM | 66 µM | 1.7 µM | 44 µM | 8.3 µM | 3.3 µM | 21 µM | – | – | – | – | – | – | – | – | –
O=C1C(Cl)=C(NCCN2CCOCC2)C(=O)c2ncccc21 [DA3003-1] | – | 0.46 µM | – | – | – | – | – | 0.21 µM | 0.68 µM | 1.7 µM | 0.17 µM | 1.7 µM | – | – | – | – | – | –
COc1cccc(-n2nc(C(=O)O)cc2-c2ccc(C3CCCCC3)c(Cl)c2)c1 [TC LPA5 4] | 21 µM | – | – | – | 8.5 µM | 12 µM | – | – | – | – | – | – | 40 µM | 24 µM | 40 µM | 8.4 µM | 13 µM | 31 µM
